What all share (assay type): functional
In one assay the test system is SK-LU-1. As to the kind of experiment: Growth inhibition of human SKLU1 cells at 50 uM after 48 hrs by SRB assay relative to control. The conditions noted are these: SK-LU-1, 48 h, read-out: GI.
A further assay deals with MCF7. As to the kind of experiment: Growth inhibition of human MCF7 cells at 50 uM after 48 hrs by SRB assay relative to control. The settings on record: MCF7, 48 h, read-out: GI. (In general: The SRB assay estimates cell density from bound dye.)
The next assay concerns PC-3. The assay is described as follows: Growth inhibition of human PC3 cells at 50 uM after 48 hrs by SRB assay relative to control. The conditions noted are these: PC-3, 48 h, read-out: GI.

The structures appear in SMILES notation.

For `Cc1ccc(C(=O)O[C@H]2CC[C@@]3(C)C(=CC[C@@H]4[C@@H]3CC[C@]3(C)C(n5cncn5)=C(C=O)C[C@@H]43)C2)cc1`, the inhibition of growth at 50 µM in the assay on SK-LU-1 is 68%; with MCF7 it was 48.7%; with PC-3 it was 3.1%.

For `Cc1ccc(C(=O)O[C@H]2CC[C@@]3(C)C(=CC[C@@H]4[C@@H]3CC[C@]3(C)C(n5cccn5)=C(C=O)C[C@@H]43)C2)cc1`, the values for the inhibition of growth at 50 µM in the assay on SK-LU-1, in the assay with MCF7 and in the assay with PC-3 were 8.5%, 0% and 0%, respectively.

Regarding `C[C@]12CC[C@H](OC(=O)c3ccc(Cl)cc3)CC1=CC[C@@H]1[C@@H]2CC[C@]2(C)C(n3cccn3)=C(C=O)C[C@@H]12`, the values for the inhibition of growth at 50 µM with SK-LU-1, in the assay on MCF7 and with PC-3 were 20.7%, 32.4% and 24.6%, respectively.

Take `C[C@]12CC[C@H](OC(=O)c3ccc(C#N)cc3)CC1=CC[C@@H]1[C@@H]2CC[C@]2(C)C(n3cncn3)=C(C=O)C[C@@H]12`: the inhibition of growth at 50 µM in the assay with SK-LU-1 stood at 89.9%; with MCF7 it was 100%; in the assay on PC-3, 100%.

Regarding `C[C@]12CC[C@H](OC(=O)c3ccc(C(F)(F)F)cc3)CC1=CC[C@@H]1[C@@H]2CC[C@]2(C)C(n3cncn3)=C(C=O)C[C@@H]12`, the inhibition of growth at 50 µM in the assay on SK-LU-1 was 89.1%; with MCF7 it was 100%; with PC-3 it was 100%.

On to `C[C@]12CC[C@H](OC(=O)c3ccc([N+](=O)[O-])cc3)CC1=CC[C@@H]1[C@@H]2CC[C@]2(C)C(n3cncn3)=C(C=O)C[C@@H]12`, for which the inhibition of growth at 50 µM came out at 100% in the assay on SK-LU-1, 100% in the assay with MCF7 and 85.7% in the assay with PC-3.

Take `C[C@]12CC[C@H](OC(=O)c3ccccc3)CC1=CC[C@@H]1[C@@H]2CC[C@]2(C)C(n3cncn3)=C(C=O)C[C@@H]12`: the results for the inhibition of growth at 50 µM with SK-LU-1, in the assay on MCF7 and with PC-3 were 39.7%, 33.5% and 21.8%, respectively.

As to `C[C@]12CC[C@H](OC(=O)c3ccc(C(F)(F)F)cc3)CC1=CC[C@@H]1[C@@H]2CC[C@]2(C)C(n3cccn3)=C(C=O)C[C@@H]12`, the inhibition of growth at 50 µM in the assay on SK-LU-1 was determined as 73.3%; in the assay with MCF7, 0%; in the assay on PC-3, 78.2%.

With `C[C@]12CC[C@H](OC(=O)c3ccc(C#N)cc3)CC1=CC[C@@H]1[C@@H]2CC[C@]2(C)C(n3cccn3)=C(C=O)C[C@@H]12`, the inhibition of growth at 50 µM with SK-LU-1 stood at 22.5%; in the assay on MCF7 it was 81.2%; with PC-3, 30.4%.

`C[C@]12CC[C@H](OC(=O)c3ccc([N+](=O)[O-])cc3)CC1=CC[C@@H]1[C@@H]2CC[C@]2(C)C(n3cccn3)=C(C=O)C[C@@H]12`: the results for the inhibition of growth at 50 µM in the assay with SK-LU-1, with MCF7 and with PC-3 were 7.5%, 20.2% and 16.7%, respectively.

Turning to `C[C@]12CC[C@H](OC(=O)C3CCCC3)CC1=CC[C@@H]1[C@@H]2CC[C@]2(C)C(n3cncn3)=C(C=O)C[C@@H]12`, the inhibition of growth at 50 µM with SK-LU-1 turned out to be 0%; in the assay with MCF7 it was 0%; with PC-3 it was 23.8%.

As to `C[C@]12CC[C@H](OC(=O)c3ccc(I)cc3)CC1=CC[C@@H]1[C@@H]2CC[C@]2(C)C(n3cccn3)=C(C=O)C[C@@H]12`, the results for the inhibition of growth at 50 µM in the assay with SK-LU-1, in the assay on MCF7 and in the assay on PC-3 were 93.5%, 96.8% and 58.4%, respectively.

Consider `COc1ccc(C(=O)O[C@H]2CC[C@@]3(C)C(=CC[C@@H]4[C@@H]3CC[C@]3(C)C(n5cccn5)=C(C=O)C[C@@H]43)C2)cc1`, for which the inhibition of growth at 50 µM was 80% with SK-LU-1, 100% in the assay with MCF7 and 51.5% in the assay with PC-3.

As to `COc1ccc(C(=O)O[C@H]2CC[C@@]3(C)C(=CC[C@@H]4[C@@H]3CC[C@]3(C)C(n5cncn5)=C(C=O)C[C@@H]43)C2)cc1`, the results for the inhibition of growth at 50 µM with SK-LU-1, in the assay on MCF7 and in the assay on PC-3 were 9.2%, 23% and 0%, respectively.

On to `C[C@]12CC[C@H](OC(=O)C3CCCCC3)CC1=CC[C@@H]1[C@@H]2CC[C@]2(C)C(n3cncn3)=C(C=O)C[C@@H]12`, for which the values for the inhibition of growth at 50 µM with SK-LU-1, in the assay with MCF7 and with PC-3 were 24.9%, 11% and 0%, respectively.

With `C[C@]12CC[C@H](OC(=O)C3CCC3)CC1=CC[C@@H]1[C@@H]2CC[C@]2(C)C(n3cncn3)=C(C=O)C[C@@H]12`, the inhibition of growth at 50 µM in the assay with SK-LU-1 was 27%; with MCF7, 16.5%; in the assay on PC-3, 0%.

As to `C[C@]12CC[C@H](OC(=O)c3ccccc3)CC1=CC[C@@H]1[C@@H]2CC[C@]2(C)C(n3cccn3)=C(C=O)C[C@@H]12`, the inhibition of growth at 50 µM in the assay on SK-LU-1 was 5.8%; with MCF7, 32.6%; in the assay on PC-3, 31.4%.

Take `C[C@]12CC[C@H](O)CC1=CC[C@@H]1[C@@H]2CC[C@]2(C)C(n3cccn3)=C(C=O)C[C@@H]12`: the inhibition of growth at 50 µM with SK-LU-1 came out at 100%; in the assay on MCF7, 41.6%; in the assay on PC-3 it was 100%.

On to `C[C@]12CC[C@H](OC(=O)C3CCCCCC3)CC1=CC[C@@H]1[C@@H]2CC[C@]2(C)C(n3cncn3)=C(C=O)C[C@@H]12`, for which the results for the inhibition of growth at 50 µM with SK-LU-1, with MCF7 and in the assay with PC-3 were 94.7%, 78% and 36.8%, respectively.

Consider `C[C@]12CC[C@H](OC(=O)C3CC3)CC1=CC[C@@H]1[C@@H]2CC[C@]2(C)C(n3cncn3)=C(C=O)C[C@@H]12`, for which the values for the inhibition of growth at 50 µM with SK-LU-1, in the assay on MCF7 and with PC-3 were 100%, 100% and 88.7%, respectively.

For `C[C@]12CC[C@H](OC(=O)c3ccc(F)cc3)CC1=CC[C@@H]1[C@@H]2CC[C@]2(C)C(n3cccn3)=C(C=O)C[C@@H]12`, the inhibition of growth at 50 µM in the assay on SK-LU-1 was 5.5%; with MCF7 it was 50.7%; in the assay with PC-3, 20.5%.

Turning to `C[C@]12CC[C@H](OC(=O)c3ccc(Br)cc3)CC1=CC[C@@H]1[C@@H]2CC[C@]2(C)C(n3cccn3)=C(C=O)C[C@@H]12`, the inhibition of growth at 50 µM came out at 17.4% in the assay on SK-LU-1, 18.5% with MCF7 and 3.7% in the assay on PC-3.

For `CC(=O)N1CCN(c2ccc(OCC3COC(Cn4ccnc4)(c4ccc(Cl)cc4Cl)O3)cc2)CC1` (centres undefined) [KETOCONAZOLE], the inhibition of growth at 50 µM in the assay on SK-LU-1 came to 73.4%; with MCF7 it was 95.2%; in the assay with PC-3, 88.5%.

Source of the values: ChEMBL document CHEMBL2424552, “Cytotoxic effect of novel dehydroepiandrosterone derivatives on different cancer cell lines” (2013).
